This is an account of results in PubChem BioAssay AID624129 (Sanford-Burnham Center for Chemical Genomics, 2012).

As usually defined, the IC50 is the concentration that gives 50% inhibition. The pIC50 is the IC50 on a negative log10 scale, so that one unit is a factor of ten. By inhibition is commonly meant the drop in the measured response relative to a control, in per cent.

pIC50: −log10 of the molar value. Activity calls are given as the source filed them. The rule behind the calls is not given here.

Holding throughout (experiment): CXCR6 receptor antagonists, dose response, cell-based, beta-arrestin, DiscoveRx, APJ panel, uHTS hits (AID 624129)
Experiment [1] has as its target C-X-C chemokine receptor type 6 (Homo sapiens) (UniProt O00574). To be noted: CXCR6 beta-arrestin (DiscoveRx) antagonist cell assay; for inhibition: CXCR6, run 1, dose range 2, at 80 µM (top of the series).
Experiment [2] deals with Apelin receptor (Homo sapiens) (UniProt P35414). Particulars: CXCR6 beta-arrestin (DiscoveRx) antagonist cell assay, APJ.
Experiment [3] deals with C-C chemokine receptor type 6 (Homo sapiens) (UniProt P51684). Particulars: CXCR6 beta-arrestin (DiscoveRx) antagonist cell assay.
Experiment [4] addresses Beta-galactosidase (Escherichia coli) (UniProt Q8VNN2). To be noted: CXCR6 beta-arrestin (DiscoveRx) antagonist cell assay, b-galactosidase.
Setting [5] is: CXCR6, dose range 1, mean IC50 across replicates.
Setting [6] is: dose range 1, mean IC50 across replicates.
Where [7] appears, read: CCR6, dose range 1, mean IC50 across replicates.

Sequence of Beta-galactosidase (Escherichia coli) (Q8VNN2 whole entry, looked up): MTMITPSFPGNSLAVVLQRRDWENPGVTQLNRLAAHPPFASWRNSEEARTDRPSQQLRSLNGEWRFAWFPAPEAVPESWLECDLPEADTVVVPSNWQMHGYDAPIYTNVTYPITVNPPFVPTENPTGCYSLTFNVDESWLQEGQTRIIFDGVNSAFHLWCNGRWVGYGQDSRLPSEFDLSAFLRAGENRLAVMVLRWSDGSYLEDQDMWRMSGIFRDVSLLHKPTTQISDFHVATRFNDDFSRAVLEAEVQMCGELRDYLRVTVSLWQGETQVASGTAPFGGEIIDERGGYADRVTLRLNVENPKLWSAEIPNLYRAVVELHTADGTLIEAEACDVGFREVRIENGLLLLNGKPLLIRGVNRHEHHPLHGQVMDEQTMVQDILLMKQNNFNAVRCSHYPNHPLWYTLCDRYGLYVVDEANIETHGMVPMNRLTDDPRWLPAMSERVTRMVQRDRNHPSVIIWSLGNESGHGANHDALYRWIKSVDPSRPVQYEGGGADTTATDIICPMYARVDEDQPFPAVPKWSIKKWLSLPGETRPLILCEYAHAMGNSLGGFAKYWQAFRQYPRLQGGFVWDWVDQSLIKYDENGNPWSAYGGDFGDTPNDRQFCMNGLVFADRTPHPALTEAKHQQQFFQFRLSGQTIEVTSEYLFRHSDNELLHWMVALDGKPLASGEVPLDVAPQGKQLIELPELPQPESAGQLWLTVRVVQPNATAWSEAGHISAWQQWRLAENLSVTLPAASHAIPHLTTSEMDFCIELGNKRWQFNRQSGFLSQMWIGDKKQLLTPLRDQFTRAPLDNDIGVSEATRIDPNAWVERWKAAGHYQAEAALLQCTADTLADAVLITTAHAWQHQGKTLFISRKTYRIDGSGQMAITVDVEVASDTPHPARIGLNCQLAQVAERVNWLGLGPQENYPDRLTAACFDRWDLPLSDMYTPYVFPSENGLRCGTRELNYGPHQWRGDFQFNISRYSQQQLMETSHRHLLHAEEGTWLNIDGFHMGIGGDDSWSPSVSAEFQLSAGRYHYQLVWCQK
Sequence of C-X-C chemokine receptor type 6 (Homo sapiens) (O00574 whole entry, looked up): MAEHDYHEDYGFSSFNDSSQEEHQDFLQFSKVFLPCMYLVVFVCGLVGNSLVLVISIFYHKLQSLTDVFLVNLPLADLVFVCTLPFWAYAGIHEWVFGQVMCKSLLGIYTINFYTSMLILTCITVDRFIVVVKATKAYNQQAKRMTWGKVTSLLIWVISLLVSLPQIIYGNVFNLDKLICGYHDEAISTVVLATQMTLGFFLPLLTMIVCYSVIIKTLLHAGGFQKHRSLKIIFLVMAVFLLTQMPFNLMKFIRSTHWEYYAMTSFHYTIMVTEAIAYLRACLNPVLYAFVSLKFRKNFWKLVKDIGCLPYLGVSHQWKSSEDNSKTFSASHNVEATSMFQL

As to `Cc1[nH][nH]c(=O)c1C(c1c(C)[nH][nH]c1=O)c1cn(Cc2ccc(F)cc2)c2ccccc12`, the IC50 entry in experiment [1] (CXCR6, dose range 1) was “inactive”. For the same compound, the pIC50 is 4.55 in experiment [1] (setting [5]); 4.56 in experiment [1] (CXCR6, run 2, dose range 1); 4.46 in experiment [2] (dose range 1); 4.48 in experiment [2] (setting [6]); 4.48 in experiment [2] (run 2, dose range 1); 4.50 in experiment [2] (run 3, dose range 1). For the same compound, the pIC50 in experiment [3] (CCR6, dose range 1) was 4.64; in experiment [3] (setting [7]) it was 4.67; in experiment [3] (CCR6, run 2, dose range 1), 4.69; in experiment [4] (setting [6]) it was < 4.10. In addition, in experiment [1], the inhibition worked out at 97.7%. Besides, in experiment [4] (dose range 1), the IC50 is > 80 µM (inactive).

For the compound `CCN1/C(=C\C=C2\C(=O)N(c3ccccc3)C(=S)N2C)Sc2ccccc21`, the pIC50 in experiment [1] (CXCR6, dose range 1) was 5.13; in experiment [1] (setting [5]), 5.20; in experiment [1] (CXCR6, run 2, dose range 1) it was 5.30; in experiment [2] (dose range 1), 5.05; in experiment [2] (setting [6]), 4.95; in experiment [2] (run 2, dose range 1), 4.86. For the same compound, the pIC50 in experiment [2] (run 3, dose range 1) is 4.96; in experiment [3] (CCR6, dose range 1) it was 5.32; in experiment [3] (setting [7]), 5.27; in experiment [3] (CCR6, run 2, dose range 1) it was 5.22; in experiment [4] (setting [6]) it was < 4.10. Moreover, the inhibition in experiment [1] came out at 91.3%. For the same compound, the IC50 in experiment [4] (dose range 1) was > 80 µM (inactive).

`Cn1c(=O)c([N+](=O)[O-])c(Cl)c2ccccc21`: in experiment [1] (CXCR6, dose range 1), the IC50 result is “inactive”. Besides, the pIC50 in experiment [1] (setting [5]) is 4.65; in experiment [1] (CXCR6, run 2, dose range 1), < 4.10; in experiment [2] (dose range 1) it was 4.79; in experiment [2] (setting [6]) it was 4.53; in experiment [2] (run 2, dose range 1) it was 4.37; in experiment [2] (run 3, dose range 1) it was < 4.10. For the same compound, the pIC50 in experiment [3] (CCR6, dose range 1) is 4.79; in experiment [3] (setting [7]), 4.66; in experiment [3] (CCR6, run 2, dose range 1), 4.57; in experiment [4] (setting [6]), < 4.10. Also, in experiment [1], the inhibition worked out at 116%. Further, the IC50 in experiment [4] (dose range 1) is > 80 µM (inactive).

Take `Oc1c(Cl)cc(Cl)c2cccnc12`: the pIC50 in experiment [1] (CXCR6, dose range 1) was 5.35; in experiment [1] (setting [5]), 5.38; in experiment [1] (CXCR6, run 2, dose range 1), 5.41; in experiment [2] (dose range 1), 5.49; in experiment [2] (setting [6]), 5.42; in experiment [2] (run 2, dose range 1) it was 5.31. The pIC50 in experiment [2] (run 3, dose range 1) was 5.48; in experiment [3] (CCR6, dose range 1), 5.60; in experiment [3] (setting [7]), 5.57; in experiment [3] (CCR6, run 2, dose range 1) it was 5.53; in experiment [4] (setting [6]) it was < 4.10. Besides, the inhibition in experiment [1] turned out to be 90.2%. In addition, the IC50 in experiment [4] (dose range 1) was > 80 µM (inactive).

In the case of `CN(C)S(=O)(=O)c1cccc(NC(=O)CSc2cccc3cccnc23)c1`, the IC50 result in experiment [1] (CXCR6, dose range 1) is “inactive”. Further, the pIC50 in experiment [1] (setting [5]) was 4.51; in experiment [1] (CXCR6, run 2, dose range 1), 4.56; in experiment [2] (dose range 1), 4.32; in experiment [2] (setting [6]) it was 4.32; in experiment [2] (run 2, dose range 1), 4.32; in experiment [2] (run 3, dose range 1) it was 4.31. Also, the pIC50 in experiment [3] (CCR6, dose range 1) is 4.43; in experiment [3] (setting [7]) it was 4.47; in experiment [3] (CCR6, run 2, dose range 1), 4.51; in experiment [4] (setting [6]), < 4.10. Besides, the inhibition in experiment [1] was 123%. The IC50 in experiment [4] (dose range 1) is > 80 µM (inactive).

For `Oc1c(Br)cc(Br)cc1C=NCc1ccccc1`, the IC50 entry in experiment [1] (CXCR6, dose range 1) is “inactive”. In addition, the pIC50 in experiment [1] (setting [5]) was 4.74; in experiment [1] (CXCR6, run 1, dose range 2) it was 4.99; in experiment [1] (CXCR6, run 2, dose range 1), 4.64; in experiment [1] (CXCR6, run 2, dose range 2) it was 4.98; in experiment [2] (dose range 1), 4.77; in experiment [2] (setting [6]) it was 4.75. Moreover, the pIC50 in experiment [2] (run 2, dose range 1) is 4.66; in experiment [2] (run 3, dose range 1) it was 4.82; in experiment [3] (CCR6, dose range 1) it was 4.78; in experiment [3] (setting [7]), 4.73; in experiment [3] (CCR6, run 2, dose range 1), 4.69; in experiment [4] (dose range 1) it was 4.54. In experiment [4] (setting [6]), the pIC50 was 4.55.

As to `Cc1ccc2oc(/N=C(\N)NC(=O)C(C)(C)C)nc2c1`, in experiment [1] (CXCR6, dose range 1), the IC50 result is “inactive”. Besides, the pIC50 in experiment [1] (setting [5]) was 4.78; in experiment [1] (CXCR6, run 2, dose range 1), 4.80; in experiment [2] (dose range 1), 4.70; in experiment [2] (setting [6]), 4.68; in experiment [2] (run 2, dose range 1), 4.72; in experiment [2] (run 3, dose range 1) it was 4.62. Further, the pIC50 was 4.95 in experiment [3] (CCR6, dose range 1); 4.91 in experiment [3] (setting [7]); 4.87 in experiment [3] (CCR6, run 2, dose range 1); < 4.10 in experiment [4] (setting [6]). Also, in experiment [1], the inhibition turned out to be 106%. Moreover, the IC50 in experiment [4] (dose range 1) is > 80 µM (inactive).

Turning to `O=C(Cn1sc2ccccc2c1=O)NC12CC3CC(CC(C3)C1)C2`, the pIC50 in experiment [1] (CXCR6, dose range 1) is 5.57; in experiment [1] (setting [5]) it was 5.62; in experiment [1] (CXCR6, run 2, dose range 1), 5.67; in experiment [2] (dose range 1), 5.69; in experiment [2] (setting [6]) it was 5.49; in experiment [2] (run 2, dose range 1), 5.26. The pIC50 is 5.68 in experiment [2] (run 3, dose range 1); 5.81 in experiment [3] (CCR6, dose range 1); 5.78 in experiment [3] (setting [7]); 5.75 in experiment [3] (CCR6, run 2, dose range 1); < 4.10 in experiment [4] (setting [6]). The inhibition in experiment [1] was 70.8%. For the same compound, the IC50 in experiment [4] (dose range 1) was > 80 µM (inactive).

Regarding `CC(=O)OCCNc1cc(SCc2ccco2)c2nonc2c1[N+](=O)[O-]`, the IC50 entry in experiment [1] (CXCR6, dose range 1) is “inactive”. The pIC50 in experiment [1] (setting [5]) is 4.81; in experiment [1] (CXCR6, run 2, dose range 1), 4.78; in experiment [2] (dose range 1) it was 4.67; in experiment [2] (setting [6]) it was 4.73; in experiment [2] (run 2, dose range 1), 4.75; in experiment [2] (run 3, dose range 1) it was 4.76. Also, the pIC50 in experiment [3] (CCR6, dose range 1) is 4.86; in experiment [3] (setting [7]) it was 4.85; in experiment [3] (CCR6, run 2, dose range 1) it was 4.85; in experiment [4] (setting [6]), < 4.10. Besides, the inhibition in experiment [1] was found to be 74.8%. Moreover, the IC50 in experiment [4] (dose range 1) is > 80 µM (inactive).

For `O=C1C=CC2(C=C1)O[C@H](Cc1ccccc1)[C@@H](Cc1ccccc1)O2`, the pIC50 in experiment [1] (CXCR6, dose range 1) was 5.05; in experiment [1] (setting [5]), 5.08; in experiment [1] (CXCR6, run 1, dose range 2), 5.18; in experiment [1] (CXCR6, run 2, dose range 1), 5.13; in experiment [1] (CXCR6, run 2, dose range 2), 4.99; in experiment [2] (dose range 1), 5.10. Moreover, the pIC50 in experiment [2] (setting [6]) was 5.08; in experiment [2] (run 2, dose range 1) it was 5.05; in experiment [2] (run 3, dose range 1), 5.08; in experiment [3] (CCR6, dose range 1), 5.35; in experiment [3] (setting [7]), 5.32; in experiment [3] (CCR6, run 2, dose range 1) it was 5.30. Also, the pIC50 in experiment [4] (setting [6]) was < 4.10. In addition, the IC50 in experiment [4] (dose range 1) was > 80 µM (inactive).

Turning to `Oc1cccc2ccc(/C=C/c3cccs3)nc12`, the pIC50 was 5.35 in experiment [1] (setting [5]); 5.56 in experiment [1] (CXCR6, run 1, dose range 2); 5.16 in experiment [1] (CXCR6, run 2, dose range 1); 5.44 in experiment [1] (CXCR6, run 2, dose range 2); 5.30 in experiment [2] (dose range 1); 5.30 in experiment [2] (setting [6]). The pIC50 in experiment [2] (run 2, dose range 1) is < 4.10; in experiment [2] (run 3, dose range 1), 5.31; in experiment [3] (CCR6, dose range 1) it was 5.40; in experiment [3] (setting [7]), 5.25; in experiment [3] (CCR6, run 2, dose range 1), 5.13; in experiment [4] (setting [6]), < 4.10. Further, the IC50 in experiment [4] (dose range 1) is > 80 µM (inactive).

Consider `CCC(=O)OCCNc1cc(Sc2nccn2C)c2nonc2c1[N+](=O)[O-]`, for which the pIC50 in experiment [1] (CXCR6, dose range 1) was 5.37; in experiment [1] (setting [5]) it was 5.33; in experiment [1] (CXCR6, run 1, dose range 2) it was 5.30; in experiment [1] (CXCR6, run 2, dose range 1), 5.32; in experiment [1] (CXCR6, run 2, dose range 2), 5.33; in experiment [2] (dose range 1), 5.13. Further, the pIC50 in experiment [2] (setting [6]) was 5.22; in experiment [2] (run 2, dose range 1) it was 5.33; in experiment [2] (run 3, dose range 1) it was 5.22; in experiment [3] (CCR6, dose range 1), 5.46; in experiment [3] (setting [7]), 5.41; in experiment [3] (CCR6, run 2, dose range 1) it was 5.37. The pIC50 in experiment [4] (setting [6]) is < 4.10. Besides, the IC50 in experiment [4] (dose range 1) was > 80 µM (inactive).
